This note sets out measurements from patent US20090088323A1, “Compositions with cyclopropenes and adjuvants” (priority 2004, published 2009).

Experiment [1] relates to Tomatoes (Rutgers 39 Variety). Put plainly: Tomato epinasty test, plants sprayed in spray hood with motorized track sprayer. It counts as in vivo. As to conditions: 1-MCP spray rate 20 grams/hectare, no adjuvant. The method, then:
Tomatoes (Rutgers 39 Variety Harris Seeds No 885 Lot 37729-A3) were grown in 2 ½″ square pots filled with a commercial potting mix. Two seeds were place in each pot. Plants that had expanded first true leaves and were between 3 and 5 inches high were used for the tomato epinasty test.
(§1) The 1-MCP treated plants and both treated and untreated controls were placed into an SLX controlled-atmosphere shipping box and sealed. To the box, ethylene was injected through a septum, which gave a concentration of 14 ppm. The plants were held sealed for 12-14 hours in the dark with ethylene in the atmosphere. At the end of ethylene treatment, the box was opened and scored for epinasty. Scoring for epinasty was accomplished by using the following scoring system for each pot. • 1. 0% no epinasty (100% control) • 2. 20% A couple leaves show some drooping (80% control) • 3. 50% Plants show 50% of full response. Not all leaves need to show effect. (50% control) • 4. 80% Almost all leaves drooping and some show underside of leaf exposed on top. (20% control) • 5. 100% Leaves completely drooping and the underside of the leaf exposed from above. (0% control)
The score of each pot is recorded. The average of 6 or 8 pots is averaged to get a score. The percentage improvement is calculated by interpolating the percentage improvement from the control water (i.e., no additives) 1-MCP treatment. […]

In experiment [2] the test system is Tomatoes (Rutgers 39 Variety). Put plainly: Tomato epinasty test (foliar spray to run off, then ethylene exposure). It counts as in vivo. The procedure: Tomato epinasty tests were performed as follows:
Two seeds were place in each pot. Plants that had expanded first true leaves and were between 3 and 5 inches high were used for the tomato epinasty test.
To conduct the assay, the plants were sprayed-to run off with the test 1-MCP foliar spray and allowed to dry for 4 hours in sunlight These operations were performed in a ventilated area away from the plants growing in the greenhouse so there would not be any unintended treatment to growing plants destined for later experiments.
as §1
The score of each pot is recorded. The average of 6 or 8 pots is averaged to get a score. The percentage improvement is calculated by interpolating the percentage improvement from the control water (i.e., no additives) 1-MCP treatment.
Tomato epinasty tests were conducted using a formulation that included water, a 1-MCP α-CD complex, and sodium salt of EDTA. […] The amount of sodium salt of EDTA in each formulation was 100 ppm. In some formulations, further ingredients were included, as described in the examples below.
Tomato epinasty tests were conducted using a formulation that included water; a 1-MCP α-CD complex that contained 0. […] The amount of 1-MCP α-CD complex was chosen so that the spray formulation had 1.2 ppm of 1-MCP. The amount of sodium salt of EDTA was kept at 50 ppm in the liquid. Also included in the spray formulations were various silicone oils (0.1% by weight based on the weight of the spray).
The amount of 1-MCP α-CD complex was chosen so that the spray formulation had 1.2 ppm of 1-MCP. The amount of sodium salt of EDTA was kept at 50 ppm. Also included in the spray formulations were various silicone oils at 0.1% by weight based on the weight of the spray formulation and sodium dioctylsufosuccinate surfactant at 0.05% by weight based on the weight of the spray formulation.

Each structure is given as a SMILES string.

For the compound `CC1=CC1` [1-MCP, 1-methylcyclopropene], the “% Control of Epinasty” value was found to be 26% in experiment [1]; 8% in experiment [2] (1.2 ppm 1-MCP, silicone oil 0.1 weight % / sodium dioctylsulfosuccinate 0.05 weight % (0 for control), 50 ppm EDTA sodium salt); 8% in experiment [2] (1.2 ppm 1-MCP, silicone oil 0.1 weight % in spray (0 for control), 50 ppm EDTA sodium salt); 10% in experiment [2] (70 ppb 1-MCP (as α-CD complex), no adjuvants, 100 ppm EDTA sodium salt, 14 ppm ethylene 12-14 h); 15% in experiment [2] (140 ppb 1-MCP (as α-CD complex), no adjuvants, 100 ppm EDTA sodium salt); 35% in experiment [2] (280 ppb 1-MCP (as α-CD complex), no adjuvants, 100 ppm EDTA sodium salt). Besides, in experiment [2] (1400 ppb 1-MCP (as α-CD complex), no adjuvants, 100 ppm EDTA sodium salt), the “% Control of Epinasty” value stood at 85%.
